In patent US8686022B2, “7-(piperazine-1-ymethyl)-1H-indole-2-carboxylic acid (phenyl)-amide derivatives and allied compounds as p38 MAP kinase inhibitors for the treatment of respiratory diseases” (Boehringer Ingelheim International GmbH, priority 2008, dated 2014):
Values after ≈ are worked out from the molar mass of the structure shown.

How the values were obtained:
p38 MAP-kinase = p38 MAP-kinase (Homo sapiens, UniProt Q16539); assay: p38 MAP-kinase enzymatic assay (phosphorylation of GST-tagged ATF2, chemoluminescence); format: biochemical; details: inhibitor concentration 1 μM; activated p38 MAP-kinase 1 nM; ATP 100 μM; read-out: p38 (% Inh @ 1 μM)
Chain of p38 MAP-kinase (Q16539 whole entry): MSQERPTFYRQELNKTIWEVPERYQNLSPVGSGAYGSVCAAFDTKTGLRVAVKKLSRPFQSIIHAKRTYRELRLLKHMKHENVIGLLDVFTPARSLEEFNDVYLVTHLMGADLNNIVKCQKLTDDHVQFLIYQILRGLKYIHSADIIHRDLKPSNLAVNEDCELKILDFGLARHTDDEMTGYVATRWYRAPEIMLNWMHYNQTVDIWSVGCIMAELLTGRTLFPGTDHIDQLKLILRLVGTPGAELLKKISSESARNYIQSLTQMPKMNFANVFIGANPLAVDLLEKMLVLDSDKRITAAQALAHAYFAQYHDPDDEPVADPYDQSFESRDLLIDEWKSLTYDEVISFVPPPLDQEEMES
Procedure, shortened: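 Activated p38 MAP-kinase (1 nM) preincubated 4 h at ambient temperature with 1 μM compound in HEPES pH 7, MgCl2, DTT, TWEEN20, then reacted 1 h with 10 nM GST-ATF2 and 100 μM ATP. Phospho-ATF2 detected by AlphaScreen-type bead luminescence; percent inhibition at 1 μM versus uninhibited and kinase-free controls.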

[1] = Determining the solubility (saturated solution in McIlvaine buffer pH 7.4, UV spectroscopy); format: physicochemical; details: pH 7.4, aqueous buffer, thermodynamic from solid, shaken 2 hours, 0.75 mg solid in 0.75 ml
Procedure, shortened: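 Excess solid (0.75 mg per 0.75 ml) shaken 2 h in McIlvaine buffer pH 7.4, then filtered through 0.45 μm PTFE membrane with first drops discarded. Dissolved amount measured by UV spectroscopy.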

cytochrome P450 2C9 = cytochrome P450 2C9 (Homo sapiens, UniProt P11712); assay: Determining the cyp2C9 activity (O-demethylation of [O-methyl-14C]-naproxen); format: in vitro ADME; details: human recombinant cytochrome P450 2C9; 37° C.; <0.4 μM when inhibition >50% at lowest concentration; read-out: CYP 2C9 IC50
Chain of cytochrome P450 2C9 (P11712 whole entry): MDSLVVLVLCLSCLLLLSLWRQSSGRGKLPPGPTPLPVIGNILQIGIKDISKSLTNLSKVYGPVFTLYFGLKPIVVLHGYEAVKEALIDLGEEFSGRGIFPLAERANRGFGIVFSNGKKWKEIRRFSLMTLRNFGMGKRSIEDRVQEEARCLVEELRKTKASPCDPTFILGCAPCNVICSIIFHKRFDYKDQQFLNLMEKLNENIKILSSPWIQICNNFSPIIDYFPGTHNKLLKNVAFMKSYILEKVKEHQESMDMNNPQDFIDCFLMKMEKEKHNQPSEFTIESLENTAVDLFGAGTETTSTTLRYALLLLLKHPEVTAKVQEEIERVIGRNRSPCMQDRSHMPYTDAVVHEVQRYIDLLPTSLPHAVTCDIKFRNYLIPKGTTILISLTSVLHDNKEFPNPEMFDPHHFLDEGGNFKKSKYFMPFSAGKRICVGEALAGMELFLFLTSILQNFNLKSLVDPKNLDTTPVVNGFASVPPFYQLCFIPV
Procedure, shortened: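 Recombinant CYP2C9 (40 pmol/ml) with 80 μM [O-methyl-14C]-naproxen in 0.1 M Tris, 5 mM MgCl2; test compound at 50, 10, 2 and 0.4 μM in duplicate. Started with 1 mM NADPH, stopped after 15 min with TCA; 14C-formaldehyde separated by solid-phase extraction and counted by scintillation. IC50 from least-squares fit.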

| Structure (SMILES) | inhibition at 1 µM (p38 MAP-kinase) | solubility at 2 h [1] | IC50 (cytochrome P450 2C9) |
| --- | --- | --- | --- |
| CCNC(=O)c1cc(C(C)(C)C)cc(NC(=O)c2cc3cccc(CN4CCN(C(=O)[C@@H]5CCCN5C)CC4)c3n2C)c1OC [10(2), (S)-1-methyl-7-[4-(1-methyl-pyrrolidine-2-carbonyl)-piperazin-1-ylmethyl]-1H-indole-2-carboxylic acid-(5-tert-butyl-3-ethylcarbamoyl-2-methoxy-phenyl)-amide] | 99.4% | 390 µg/mL (≈ 632 µM) | 0.46 µM |
| COc1c(NC(=O)c2cc3cccc(CN4CCN(C(=O)[C@@H]5CCCN5C)CC4)c3n2C)cc(C(F)(F)F)cc1NS(C)(=O)=O [14(1), (S)-1-methyl-7-[4-(1-methyl-pyrrolidine-2-carbonyl)-piperazin-1-ylmethyl]-1H-indole-2-carboxylic acid-(3-methanesulphonylamino-2-methoxy-5-trifluoromethyl-phenyl)-amide] | 97.9% | 97 µg/mL (≈ 149 µM) | 5.27 µM |
| COc1c(CN2CCCC(N(C)C)C2)cc(C(C)(C)C)cc1NC(=O)c1cc2cccc(CN3CCN(C(=O)[C@@H]4CCCN4C)CC3)c2n1C (stereo partly drawn) [9(3), 1-methyl-7-[4-((2S)-1-methyl-pyrrolidine-2-carbonyl)-piperazin-1-ylmethyl]-1H-indole-2-carboxylic acid-[5-tert-butyl-3-(3-dimethylamino-piperidin-1-ylmethyl)-2-methoxy-phenyl]-amide] | 98.9% | 700 µg/mL (≈ 1020 µM) | 6.84 µM |
| COc1c(NC(=O)c2cc3cccc(CN4CCN(C(=O)[C@H]5CCCN5C)CC4)c3n2C)cc(C(C)(C)C)cc1NS(C)(=O)=O [1(3), (R)-1-methyl-7-[4-(1-methyl-pyrrolidine-2-carbonyl)-piperazin-1-ylmethyl]-1H-indole-2-carboxylic acid(5-tert-butyl-3-methanesulphonylamino-2-methoxy-phenyl)-amide] | 99.1% | 160 µg/mL (≈ 250 µM) | 1.04 µM |
| COc1c(NC(=O)c2cc3cccc(CN4CCC(C(=O)N5CC[C@@H](N(C)C)C5)CC4)c3n2C)cc(C(C)(C)C)cc1NS(C)(=O)=O [1(24), (R)-7-[4-(3-dimethylamino-pyrrolidine-1-carbonyl)-piperidin-1-ylmethyl]-1-methyl-1H-indole-2-carboxylic acid-(5-tert-butyl-3-methanesulphonylamino-2-methoxy-phenyl)-amide] | 54.2% | 36 µg/mL (≈ 54 µM) | 2.47 µM |
| COc1c(NC(=O)c2cc3cccc(CC4CCCN(C(=O)C5CCN(C)CC5)CC4)c3n2C)cc(C(C)(C)C)cc1NS(C)(=O)=O (stereo not drawn) [1(19), 1-methyl-7-[1-(1-methyl-piperidine-4-carbonyl)-azepan-4-ylmethyl]-1H-indole-2-carboxylic acid-(5-tert-butyl-3-methanesulphonylamino-2-methoxy-phenyl)-amide] | 98.5% | 98 µg/mL (≈ 147 µM) | 3.59 µM |
| COc1c(NC(=O)c2cc3cccc(CN4CCN(C(=O)[C@@H]5CCCN5C)CC4)c3n2C)cc(C(C)(C)C)cc1NC(=O)C1CC1 [12(4), (S)-1-methyl-7-[4-(1-methyl-pyrrolidine-2-carbonyl)-piperazin-1-ylmethyl]-1H-indole-2-carboxylic acid-[5-tert-butyl-3-(cyclopropanecarbonyl-amino)-2-methoxy-phenyl]-amide] | 96.4% | 59 µg/mL (≈ 93.8 µM) | 0.65 µM |
| CCN(CC)C1CCN(Cc2cc(C(C)(C)C)cc(NC(=O)c3cc4cccc(CN5CCN(C(=O)[C@@H]6CCCN6C)CC5)c4n3C)c2OC)C1 (stereo partly drawn) [9(4), 1-methyl-7-[4-((2S)-1-methyl-pyrrolidine-2-carbonyl)-piperazin-1-ylmethyl]-1H-indole-2-carboxylic acid-[5-tert-butyl-3-(3-diethylamino-pyrrolidin-1-ylmethyl)-2-methoxy-phenyl]-amide] | 98% | 690 µg/mL (≈ 986 µM) | 8.11 µM |
| COc1c(NC(=O)c2cc3cccc(CN4CCN(C(=O)CC5CC5)CC4)c3n2C)cc(C(C)(C)C)cc1NS(C)(=O)=O [Va, reference compound] | 98.8% | < 1 µg/mL | < 0.4 µM |
| COc1c(NC(=O)c2cc3cccc(CN4CCN(C(=O)[C@@H]5CCCN5C)CC4)c3n2C)cc(C(C)(C)C)cc1C(=O)NC(C)C [10(1), (S)-1-methyl-7-[4-(1-methyl-pyrrolidine-2-carbonyl)-piperazin-1-ylmethyl]-1H-indole-2-carboxylic acid-(5-tert-butyl-3-isopropylcarbamoyl-2-methoxy-phenyl)-amide] | 99.1% | 380 µg/mL (≈ 602 µM) | 1.29 µM |
| COc1c(NC(=O)c2cc3cccc(CN4CCN(C(=O)CN5CCC(N(C)C)CC5)CC4)c3n2C)cc(C(C)(C)C)cc1NS(C)(=O)=O [Example 6, 7-{4-[2-(4-dimethylamino-piperidin-1-yl)-acetyl]-piperazin-1-ylmethyl}-1-methyl-1H-indole-2-carboxylic acid-(5-tert-butyl-3-methanesulphonylamino-2-methoxy-phenyl)-amide] | 98.6% | > 1000 µg/mL | 3.43 µM |
| COc1c(NC(=O)c2cc3cccc(CN4CCN(C(=O)CN5CCCC5)CC4)c3n2C)cc(C(C)(C)C)cc1NS(C)(=O)=O [1(16), 1-methyl-7-[4-(2-pyrrolidin-1-yl-acetyl)-piperazin-1-ylmethyl]-1H-indole-2-carboxylic acid-(5-tert-butyl-3-methanesulphonylamino-2-methoxy-phenyl)-amide] | 98.4% | 620 µg/mL (≈ 971 µM) | 20.4 µM |
| COc1c(CO)cc(C(C)(C)C)cc1NC(=O)c1cc2cccc(CN3CCN(C(=O)[C@@H]4CCCN4C)CC3)c2n1C [Example 15, (S)-1-methyl-7-[4-(1-methyl-pyrrolidine-2-carbonyl)-piperazin-1-ylmethyl]-1H-indole-2-carboxylic acid-(5-tert-butyl-3-hydroxymethyl-2-methoxy-phenyl)-amide] | 99.4% | 230 µg/mL (≈ 399 µM) | 2.54 µM |
| COc1c(NC(=O)c2cc3cccc(CN4CCN(C(=O)[C@@H]5CCCN5C)CC4)c3n2C)cc(C(C)(C)C)cc1NS(C)(=O)=O [1(1), (S)-1-methyl-7-[4-(1-methyl-pyrrolidine-2-carbonyl)-piperazin-1-ylmethyl]-1H-indole-2-carboxylic acid(5-tert-butyl-3-methanesulphonylamino-2-methoxy-phenyl)-amide] | 99.6% | 340 µg/mL (≈ 532 µM) | 2.13 µM |
| COc1c(CN(C(C)C)C(C)C)cc(C(C)(C)C)cc1NC(=O)c1cc2cccc(CN3CCN(C(=O)[C@@H]4CCCN4C)CC3)c2n1C [9(1), (S)-1-methyl-7-[4-(1-methyl-pyrrolidine-2-carbonyl)-piperazin-1-ylmethyl]-1H-indole-2-carboxylic acid-{5-tert-butyl-3-[(diisopropylamino)-methyl]-2-methoxy-phenyl}-amide] | 95.8% | 570 µg/mL (≈ 865 µM) | 6.7 µM |
| COc1c(NC(=O)c2cc3cccc(CN4CCN(C(=O)[C@@H]5CCCN5C)CC4)c3n2C)cc(C(C)C)cc1NS(C)(=O)=O [11(2), (S)-1-methyl-7-[4-(1-methyl-pyrrolidine-2-carbonyl)-piperazin-1-ylmethyl]-1H-indole-2-carboxylic acid-(5-isopropyl-3-methanesulphonylamino-2-methoxy-phenyl)-amide] | 18% | > 1000 µg/mL | 10.4 µM |
